Target: T1, mMdr1b (Mus musculus, UniProt P06795)
T1 construct: expressed in transfected cells; host or cells: HEK293
Assay: Two-point inhibition of mMdr1b-mediated efflux of rhodamin123 in transfected HEK293 cells
Assay type: in vitro ADME
Settings: rhodamin123 10 μM, efflux 30 min
Description: Well-characterized mOct1-, mOct2-, mOat1-, mOat2-, mOat3-, mMate1-, hOAT1-, hOAT3-, hOAT4-, hMRP2-, mMdr1a- and mMdr1b-transfected HEK293 cells and the respective vector-transfected control HEK293 cells were used.[42],[51],[52] All HEK293 cells (transporter-transfected and vector-transfected) were cultured in DMEM (Sigma, high glucose, 10% FBS, 1% penicillin (10,000 Units/mL)/streptomycin (10 mg/mL)) at 37°C under 5% CO2 in humidified atmosphere. The cells were routinely checked for the absence of mycoplasma infection. For the preparation of HEK293 cell monolayers, 24-well plates were pretreated with a poly-D-lysine hydrobromide solution (0.1 mg/mL). Each well was coated with 0.5 mL of poly-D-lysine solution and incubated for at least 15 min. […]
For efflux assays, growth medium was aspirated, and each well was rinsed twice with 0.5 mL of incubation HBSS buffer (supplemented with 20 mM HEPES, pH 7.4) and then preincubated in 200 μL of incubation buffer containing 10 μM rhodamin123 and 10 μM cyclosporine A for 60 min at 37 °C for loading the cells with rhodamin123. […] Samples were diluted with incubation buffer, and fluorescence was measured in a 96-well plate (Sarstedt, flat bottom) at an extinction of 490 nm and emission of 535 nm. […]
The inhibitory effect I (%) and the efflux ratio was calculated in the same way described for the uptake assays.

T1 sequence (P06795 whole entry): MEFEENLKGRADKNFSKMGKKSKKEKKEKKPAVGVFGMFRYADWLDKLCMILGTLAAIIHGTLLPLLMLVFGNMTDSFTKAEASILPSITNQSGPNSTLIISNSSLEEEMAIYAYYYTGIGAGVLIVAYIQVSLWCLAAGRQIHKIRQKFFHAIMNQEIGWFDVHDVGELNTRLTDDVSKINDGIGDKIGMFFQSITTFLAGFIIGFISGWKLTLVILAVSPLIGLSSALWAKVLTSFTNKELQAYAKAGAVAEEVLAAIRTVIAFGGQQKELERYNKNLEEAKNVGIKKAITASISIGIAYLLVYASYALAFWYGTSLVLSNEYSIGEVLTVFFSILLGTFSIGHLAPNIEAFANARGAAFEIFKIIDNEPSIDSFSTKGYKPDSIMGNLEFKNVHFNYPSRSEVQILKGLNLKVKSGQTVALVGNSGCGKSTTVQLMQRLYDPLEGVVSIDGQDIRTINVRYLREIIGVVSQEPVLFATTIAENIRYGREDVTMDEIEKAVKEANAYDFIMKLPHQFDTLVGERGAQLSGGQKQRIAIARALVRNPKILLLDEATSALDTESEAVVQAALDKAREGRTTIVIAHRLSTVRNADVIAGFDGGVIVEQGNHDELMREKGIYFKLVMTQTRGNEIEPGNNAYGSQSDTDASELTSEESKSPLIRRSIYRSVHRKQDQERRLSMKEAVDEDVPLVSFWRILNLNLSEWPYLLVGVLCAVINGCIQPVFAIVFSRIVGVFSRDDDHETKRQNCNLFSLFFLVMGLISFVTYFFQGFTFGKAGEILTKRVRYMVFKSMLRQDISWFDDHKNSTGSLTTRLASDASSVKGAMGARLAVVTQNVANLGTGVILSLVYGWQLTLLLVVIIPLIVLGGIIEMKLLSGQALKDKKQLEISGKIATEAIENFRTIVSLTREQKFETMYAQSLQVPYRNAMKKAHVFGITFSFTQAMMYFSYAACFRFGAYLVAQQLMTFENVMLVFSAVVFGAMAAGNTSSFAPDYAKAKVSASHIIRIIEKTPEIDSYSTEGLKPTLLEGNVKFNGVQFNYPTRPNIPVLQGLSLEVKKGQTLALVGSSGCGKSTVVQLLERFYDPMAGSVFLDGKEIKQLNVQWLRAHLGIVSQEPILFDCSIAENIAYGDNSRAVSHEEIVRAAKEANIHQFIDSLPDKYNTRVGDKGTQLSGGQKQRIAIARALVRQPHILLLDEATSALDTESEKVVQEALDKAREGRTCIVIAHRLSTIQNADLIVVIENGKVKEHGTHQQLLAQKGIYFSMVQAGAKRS

Row | Structure (SMILES) | inhibition at 10 µM (HEK293, at 10 μM, read-out: inhibitory effect on mMdr1b) [%] | inhibitory effect on mMdr1b (in words) (1 and 10 μM)
1 | Cc1ccc2c(C)c3c(c(O)c2c1O)C(=O)[C@@]1(O)C(=O)C(C(N)=O)=C(O)[C@@H](N)[C@H]1C3 [CDCHD, amidochelocardin] | ~30 | 
2 | CC(=O)C1=C(O)[C@@H](N)[C@H]2Cc3c(c(O)c4c(O)c(C)ccc4c3C)C(=O)[C@@]2(O)C1=O [CHD, chelocardin] |  | no effect

From PMC11249637, “Interaction of the Atypical Tetracyclines Chelocardin and Amidochelocardin with Renal Drug Transporters” (ACS Pharmacology & Translational Science, 2024)
